Laboratory results: PubChem BioAssay (NCI)
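Step 1: Grow cells in 96-well plates. Step 2: Expose to compound for 48 hours at 5 concentrations. Step 3: Interpolate endpoints linearly; if unreached, use highest concentration. The concentration for 50% growth inhibition is given as GI50. TGI denotes the concentration required for complete inhibition of growth.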

Columns and labels:
Test in all cases: DTP human tumour cell line panel, 48 h
786-0 renal = test system: 786-0 renal
A498 renal = test system: A498 renal
A549 NSCLC = test system: A549 NSCLC
ACHN renal = test system: ACHN renal
BT-549 breast = test system: BT-549 breast
CAKI-1 renal = test system: CAKI-1 renal
CCRF-CEM leukemia = test system: CCRF-CEM leukemia
COLO 205 colon = test system: COLO 205 colon
DU-145 prostate = test system: DU-145 prostate
EKVX NSCLC = test system: EKVX NSCLC
HCC-2998 colon = test system: HCC-2998 colon
HCT-116 colon = test system: HCT-116 colon
HCT-15 colon = test system: HCT-15 colon
HL-60(TB) leukemia = test system: HL-60(TB) leukemia
HOP-62 NSCLC = test system: HOP-62 NSCLC
HOP-92 NSCLC = test system: HOP-92 NSCLC
HS 578T breast = test system: HS 578T breast
HT29 colon = test system: HT29 colon
IGROV1 ovarian = test system: IGROV1 ovarian
K-562 leukemia = test system: K-562 leukemia
KM12 colon = test system: KM12 colon
LOX IMVI melanoma = test system: LOX IMVI melanoma
M14 melanoma = test system: M14 melanoma
MALME-3M melanoma = test system: MALME-3M melanoma
MCF7 breast = test system: MCF7 breast
MDA-MB-231 breast = test system: MDA-MB-231 breast
MDA-MB-435 = test system: MDA-MB-435
MDA-MB-468 breast = test system: MDA-MB-468 breast
MOLT-4 leukemia = test system: MOLT-4 leukemia
NCI-H226 lung = test system: NCI-H226 lung
NCI-H23 lung = test system: NCI-H23 lung
NCI-H460 lung = test system: NCI-H460 lung
NCI-H522 lung = test system: NCI-H522 lung
NCI/ADR-RES ovarian = test system: NCI/ADR-RES ovarian
OVCAR-3 ovarian = test system: OVCAR-3 ovarian
OVCAR-4 ovarian = test system: OVCAR-4 ovarian
OVCAR-5 ovarian = test system: OVCAR-5 ovarian
OVCAR-8 ovarian = test system: OVCAR-8 ovarian
PC-3 prostate = test system: PC-3 prostate
RPMI-8226 leukemia = test system: RPMI-8226 leukemia
RXF 393 renal = test system: RXF 393 renal
SF-268 CNS = test system: SF-268 CNS
SF-295 CNS = test system: SF-295 CNS
SF-539 CNS = test system: SF-539 CNS
SK-MEL-2 melanoma = test system: SK-MEL-2 melanoma
SK-MEL-28 melanoma = test system: SK-MEL-28 melanoma
SK-MEL-5 melanoma = test system: SK-MEL-5 melanoma
SK-OV-3 ovarian = test system: SK-OV-3 ovarian
SN12C renal = test system: SN12C renal
SNB-19 CNS = test system: SNB-19 CNS
SNB-75 CNS = test system: SNB-75 CNS
SW-620 colon = test system: SW-620 colon
T-47D breast = test system: T-47D breast
TK-10 renal = test system: TK-10 renal
U251 CNS = test system: U251 CNS
UACC-257 melanoma = test system: UACC-257 melanoma
UACC-62 melanoma = test system: UACC-62 melanoma
UO-31 renal = test system: UO-31 renal
SR leukemia = test system: SR leukemia

## Cc1ccc(S(=O)(=O)c2nc(S(=O)(=O)c3ccc(C)cc3)c(Cl)s2)cc1
786-0 renal
  GI50: > 100000 nM
  TGI: > 100000 nM
A498 renal
  GI50: > 100 µM
  TGI: > 100 µM
A549 NSCLC
  GI50: > 100 µM
  TGI: > 100 µM
ACHN renal
  GI50: > 100000 nM
  TGI: > 100000 nM
BT-549 breast
  GI50: > 100000 nM
  TGI: > 100 µM
CAKI-1 renal
  GI50: > 100000 nM
  TGI: > 100 µM
CCRF-CEM leukemia
  GI50: > 100000 nM
  TGI: > 100000 nM
COLO 205 colon
  GI50: > 100000 nM
  TGI: > 100 µM
DU-145 prostate
  GI50: > 100000 nM
  TGI: > 100000 nM
EKVX NSCLC
  GI50: > 100000 nM
  TGI: > 100000 nM
HCC-2998 colon
  GI50: > 100000 nM
  TGI: > 100000 nM
HCT-116 colon
  GI50: > 100000 nM
  TGI: > 100000 nM
HCT-15 colon
  GI50: > 100000 nM
  TGI: > 100000 nM
HL-60(TB) leukemia
  GI50: > 100000 nM
  TGI: > 100 µM
HOP-62 NSCLC
  GI50: > 100000 nM
  TGI: > 100000 nM
HOP-92 NSCLC
  GI50: > 100 µM
  TGI: > 100 µM
HS 578T breast
  GI50: > 100 µM
  TGI: > 100 µM
HT29 colon
  GI50: > 100000 nM
  TGI: > 100000 nM
IGROV1 ovarian
  GI50: > 100000 nM
  TGI: > 100000 nM
K-562 leukemia
  GI50: > 100000 nM
  TGI: > 100 µM
KM12 colon
  GI50: > 100000 nM
  TGI: > 100000 nM
LOX IMVI melanoma
  GI50: > 100000 nM
  TGI: > 100000 nM
M14 melanoma
  GI50: > 100000 nM
  TGI: > 100000 nM
MALME-3M melanoma
  GI50: > 100000 nM
  TGI: > 100000 nM
MCF7 breast
  GI50: > 100000 nM
  TGI: > 100000 nM
MDA-MB-231 breast
  GI50: > 100000 nM
  TGI: > 100000 nM
MDA-MB-435
  GI50: > 100000 nM
  TGI: > 100000 nM
MDA-MB-468 breast
  GI50: > 100000 nM
  TGI: > 100000 nM
MOLT-4 leukemia
  GI50: > 100 µM
  TGI: > 100 µM
NCI-H226 lung
  GI50: > 100000 nM
  TGI: > 100000 nM
NCI-H23 lung
  GI50: > 100000 nM
  TGI: > 100000 nM
NCI-H460 lung
  GI50: > 100000 nM
  TGI: > 100000 nM
NCI-H522 lung
  GI50: > 100 µM
  TGI: > 100 µM
NCI/ADR-RES ovarian
  GI50: > 100000 nM
  TGI: > 100000 nM
OVCAR-3 ovarian
  GI50: > 100000 nM
  TGI: > 100000 nM
OVCAR-4 ovarian
  GI50: > 100000 nM
  TGI: > 100 µM
OVCAR-5 ovarian
  GI50: > 100000 nM
  TGI: > 100000 nM
OVCAR-8 ovarian
  GI50: > 100 µM
  TGI: > 100 µM
PC-3 prostate
  GI50: > 100000 nM
  TGI: > 100000 nM
RPMI-8226 leukemia
  GI50: > 100000 nM
  TGI: > 100 µM
RXF 393 renal
  GI50: > 100000 nM
  TGI: > 100000 nM
SF-268 CNS
  GI50: > 100000 nM
  TGI: > 100000 nM
SF-295 CNS
  GI50: > 100000 nM
  TGI: > 100000 nM
SF-539 CNS
  GI50: > 100000 nM
  TGI: > 100000 nM
SK-MEL-2 melanoma
  GI50: > 100 µM
  TGI: > 100 µM
SK-MEL-28 melanoma
  GI50: > 100000 nM
  TGI: > 100 µM
SK-MEL-5 melanoma
  GI50: > 100000 nM
  TGI: > 100 µM
SK-OV-3 ovarian
  GI50: > 100000 nM
  TGI: > 100 µM
SN12C renal
  GI50: > 100000 nM
  TGI: > 100000 nM
SNB-19 CNS
  GI50: > 100000 nM
  TGI: > 100000 nM
SNB-75 CNS
  GI50: > 100000 nM
  TGI: > 100 µM
SW-620 colon
  GI50: > 100000 nM
  TGI: > 100000 nM
T-47D breast
  GI50: > 100000 nM
  TGI: > 100 µM
TK-10 renal
  GI50: > 100 µM
  TGI: > 100 µM
U251 CNS
  GI50: > 100000 nM
  TGI: > 100000 nM
UACC-257 melanoma
  GI50: > 100 µM
  TGI: > 100 µM
UACC-62 melanoma
  GI50: > 100000 nM
  TGI: > 100 µM
UO-31 renal
  GI50: > 100000 nM
  TGI: > 100000 nM

## COc1cc2c3c(n(CCCN4CCC[C@@H]4CO)c(=O)c2cc1OC)-c1cc2c(cc1C3=O)OCO2
786-0 renal
  GI50: 647 nM
  TGI: 1810 nM
A498 renal
  GI50: 14 µM
  TGI: 28.3 µM
ACHN renal
  GI50: 293 nM
  TGI: 1320 nM
BT-549 breast
  GI50: 1370 nM
  TGI: 15.5 µM
CAKI-1 renal
  GI50: 344 nM
  TGI: 4.96 µM
CCRF-CEM leukemia
  GI50: 27 nM
  TGI: 2260 nM
COLO 205 colon
  GI50: 1230 nM
  TGI: 5.27 µM
DU-145 prostate
  GI50: 223 nM
  TGI: 1710 nM
EKVX NSCLC
  GI50: 1440 nM
  TGI: 2880 nM
HCC-2998 colon
  GI50: 1400 nM
  TGI: 2690 nM
HCT-116 colon
  GI50: 451 nM
  TGI: 2050 nM
HCT-15 colon
  GI50: 1260 nM
  TGI: 2580 nM
HL-60(TB) leukemia
  GI50: 871 nM
  TGI: 3.11 µM
HOP-62 NSCLC
  GI50: 191 nM
  TGI: 1680 nM
HOP-92 NSCLC
  GI50: 4.27 µM
  TGI: 9.63 µM
HS 578T breast
  GI50: 4.57 µM
  TGI: 13 µM
HT29 colon
  GI50: 1070 nM
  TGI: 2410 nM
IGROV1 ovarian
  GI50: 1310 nM
  TGI: 2640 nM
K-562 leukemia
  GI50: 1270 nM
  TGI: > 100 µM
KM12 colon
  GI50: 1300 nM
  TGI: 2910 nM
LOX IMVI melanoma
  GI50: 226 nM
  TGI: 1610 nM
M14 melanoma
  GI50: 473 nM
  TGI: 1910 nM
MALME-3M melanoma
  GI50: 1370 nM
  TGI: 2830 nM
MCF7 breast
  GI50: 41.1 nM
  TGI: 1450 nM
MDA-MB-231 breast
  GI50: 1380 nM
  TGI: 2750 nM
MDA-MB-435
  GI50: 1220 nM
  TGI: 2540 nM
MDA-MB-468 breast
  GI50: 318 nM
  TGI: 1280 nM
MOLT-4 leukemia
  GI50: < 0.0233 µM
  TGI: 4.13 µM
NCI-H226 lung
  GI50: 771 nM
  TGI: 2620 nM
NCI-H23 lung
  GI50: 207 nM
  TGI: 1520 nM
NCI-H460 lung
  GI50: 84.1 nM
  TGI: 1300 nM
NCI-H522 lung
  GI50: 3.05 µM
  TGI: 20.8 µM
NCI/ADR-RES ovarian
  GI50: 356 nM
  TGI: 2210 nM
OVCAR-3 ovarian
  GI50: 1350 nM
  TGI: 2910 nM
OVCAR-4 ovarian
  GI50: 1700 nM
  TGI: 3.33 µM
OVCAR-5 ovarian
  GI50: 1460 nM
  TGI: 2800 nM
PC-3 prostate
  GI50: 1180 nM
  TGI: 2940 nM
RPMI-8226 leukemia
  GI50: 688 nM
  TGI: 3.95 µM
RXF 393 renal
  GI50: 966 nM
  TGI: 2560 nM
SF-268 CNS
  GI50: 404 nM
  TGI: 2280 nM
SF-295 CNS
  GI50: 91.3 nM
  TGI: 1470 nM
SF-539 CNS
  GI50: 267 nM
  TGI: 1150 nM
SK-MEL-2 melanoma
  GI50: 16 µM
  TGI: 34.3 µM
SK-MEL-28 melanoma
  GI50: 1650 nM
  TGI: 3.15 µM
SK-MEL-5 melanoma
  GI50: 966 nM
  TGI: 12.8 µM
SK-OV-3 ovarian
  GI50: 520 nM
  TGI: 10.3 µM
SN12C renal
  GI50: 461 nM
  TGI: 1810 nM
SNB-19 CNS
  GI50: 408 nM
  TGI: 1900 nM
SNB-75 CNS
  GI50: 630 nM
  TGI: 5.05 µM
SR leukemia
  GI50: 214 nM
  TGI: > 100 µM
SW-620 colon
  GI50: 399 nM
  TGI: 2150 nM
T-47D breast
  GI50: 576 nM
  TGI: 19.1 µM
TK-10 renal
  GI50: 16.2 µM
  TGI: 30.6 µM
U251 CNS
  GI50: 358 nM
  TGI: 2200 nM
UACC-257 melanoma
  GI50: 12 µM
  TGI: 28.7 µM
UACC-62 melanoma
  GI50: 305 nM
  TGI: 9.23 µM
UO-31 renal
  GI50: 762 nM
  TGI: 2140 nM
